Test results published in patent US9708336B2, “Metallo-beta-lactamase inhibitors” (priority 2014, dated 2017).
Like-named read-outs stand apart in the source and are kept apart here.

What was measured:
[1] = test system: Escherichia coli expressing NDM-1 (CLB30016); experiment: Antibiotic potentiation activity: synergistic concentration (MITC95) with imipenem, OD600 growth; type: cell-based; details: for Escherichia coli expressing NDM-1 (CLB 30016) MITC95: concentration giving 95% inhibition of bacterial growth
How it was run: (§1)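 Compound activity is tested with and without imipenem, which is present at 4 μg/ml (or 1 μg/ml) in the well. Bacteria in 1.1× CAMHB are incubated 22–24 h at 35 °C; absorbance gives the growth endpoint.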

[2] = test system: Serratia marcescens expressing IMP-1 (CL5741); experiment: as above; type: cell-based; details: for Serratia marcescens expressing IMP-1 (CL5741) MITC95: concentration giving 95% inhibition of bacterial growth
How it was run: as §1

[3] = test system: Klebsiella pneumoniae expressing VIM-1 (IHMA599644); experiment: as above; type: cell-based; details: for Klebsiella pneumoniae expressing VIM-1 (IHMA 599644) MITC95: concentration giving 95% inhibition of bacterial growth
How it was run: as §1

NDM-1 = NDM-1 (Klebsiella pneumoniae, UniProt C7C422); experiment: biochemical; type: biochemical; details: read-out: NDM-1 IC50
Chain of NDM-1 (C7C422 whole entry, looked up, species assumed): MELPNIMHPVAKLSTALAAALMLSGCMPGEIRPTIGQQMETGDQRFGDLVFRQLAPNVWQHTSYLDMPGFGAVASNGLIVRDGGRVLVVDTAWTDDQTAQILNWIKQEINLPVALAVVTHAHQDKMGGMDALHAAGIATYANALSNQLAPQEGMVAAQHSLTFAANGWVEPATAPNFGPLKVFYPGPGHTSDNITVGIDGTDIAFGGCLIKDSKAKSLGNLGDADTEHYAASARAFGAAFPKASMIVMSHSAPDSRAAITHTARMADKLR

IMP-1 = IMP-1 (Serratia marcescens, UniProt P52699); experiment: biochemical; type: biochemical; details: read-out: IMP-1 IC50
Chain of IMP-1 (P52699 whole entry, looked up): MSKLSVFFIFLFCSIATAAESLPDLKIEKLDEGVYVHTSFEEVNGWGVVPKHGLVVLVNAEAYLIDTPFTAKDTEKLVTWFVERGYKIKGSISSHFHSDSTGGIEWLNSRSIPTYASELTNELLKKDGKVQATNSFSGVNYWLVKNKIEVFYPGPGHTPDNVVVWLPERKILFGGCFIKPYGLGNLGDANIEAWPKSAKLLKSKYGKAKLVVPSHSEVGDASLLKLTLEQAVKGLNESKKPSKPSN
Method: Enzyme Activity: Determination of IC50
(§2) The Class B enzyme activities were measured in the presence of the test inhibitor in a fluorescence assay against a commercially available substrate consisting of a cephalosporin core linking 7-hydroxycoumarin to fluorescein (CCF2-FA). The enzyme (NDM-1, IMP-1 or VIM-1) and the substrate were diluted in 100 mM KH2PO4 buffer (pH 7) containing 0.005% Tween-20 and 10 μM ZnSO4. […] The test inhibitor was dissolved in dimethylsulfoxide and diluted 1:50 in the assay, resulting in a final concentration range of 20 uM to 0.00063 uM. In a 384-well microplate, the test inhibitor was incubated with the metallo-β-lactamase enzyme and the substrate for 2 hours at 25° C. Fluorescence at 460 nm following excitation at 405 nm was measured. The IC50 value was determined from semi-logarithmic plots of enzyme inhibition versus inhibitor concentration, with a curve generated using a 4-parameter fit.

VIM-1 = VIM-1 (Pseudomonas aeruginosa (strain ATCC 15692 / DSM 22644 / CIP 104116 / JCM 14847 / LMG 12228 / 1C / PRS 101 / PAO1), UniProt A0A0F7KYQ8); experiment: Enzyme activity: determination of IC50, fluorescence assay with CCF2-FA substrate (VIM-1); type: biochemical
Method: Enzyme Activity: Determination of IC50
as §2

[4] = (CLB30016, NDM-1), 95% growth inhibition
[5] = Serratia marcescens CL5741 (IMP-1), 95% growth inhibition
[6] = Klebsiella pneumoniae IHMA599644 (VIM-1), 95% growth inhibition
[7] = NDM-1 enzyme, CCF2-FA substrate
[8] = IMP-1 enzyme, CCF2-FA substrate
[9] = VIM-1 enzyme, CCF2-FA substrate, read-out: VIM-1 IC50
[10] = CLB30016 (NDM-1), 95% inhibition of bacterial growth
[11] = CL5741 (IMP-1), 95% inhibition of bacterial growth
[12] = IHMA599644 (VIM-1), 95% inhibition of bacterial growth
[13] = fluorescence assay with CCF2-FA substrate
[14] = fluorescence assay with CCF2-FA substrate, read-out: VIM-1 IC50
[15] = Escherichia coli expressing NDM-1 (CLB30016), 95% growth inhibition
[16] = Serratia marcescens expressing IMP-1 (CL5741), 95% growth inhibition
[17] = Klebsiella pneumoniae expressing VIM-1 (IHMA599644), 95% growth inhibition
[18] = NDM-1 enzyme, CCF2-FA fluorescence assay
[19] = IMP-1 enzyme, CCF2-FA fluorescence assay
[20] = VIM-1 enzyme, CCF2-FA fluorescence assay, read-out: VIM-1 IC50
[21] = VIM-1 IC50, VIM-1 enzyme, CCF2-FA fluorescence assay
[22] = VIM-1 IC50, fluorescence assay with CCF2-FA substrate

| SMILES | Escherichia coli MITC95 [1, 4] [µM] | Serratia marcescens MITC95 [2, 5] [µM] | Klebsiella pneumoniae MITC95 [3, 6] [µM] | IC50 (NDM-1; [7]) [nM] | IC50 (IMP-1; [8]) [nM] | IC50 (VIM-1; [9]) [nM] | Escherichia coli MITC95 [1, 15] [µM] | Serratia marcescens MITC95 [2, 16] [µM] | Klebsiella pneumoniae MITC95 [3, 17] [µM] | IC50 (NDM-1; [18]) [nM] | IC50 (IMP-1; [19]) [nM] | further results |
| --- | --- | --- | --- | --- | --- | --- | --- | --- | --- | --- | --- | --- |
| Nc1nc2c(-c3ccc(CC4CCC4)c(S(N)(=O)=O)c3-c3nn[nH]n3)cccc2s1 [Example 535, 3-(2-Aminobenzo[d]thiazol-4-yl)-6-(cyclobutylmethyl)-2-(2H-tetrazol-5-yl)benzenesulfonamide] | 6.25 | 25 | 50 | 0.844 | 6.86 | 2.71 | – | – | – | – | – | – |
| NS(=O)(=O)c1c(C(F)(F)F)ccc(-c2ccc(C3CCN(C4CCNC4)CC3)cc2)c1-c1nnn[nH]1 (stereo not drawn) [Example 789, 4′-(1-pyrrolidin-3-ylpiperidin-4-yl)-2-(1H-tetrazol-5-yl)-4-(trifluoromethyl)biphenyl-3-sulfonamide] | – | – | – | – | – | – | – | – | – | – | – | Escherichia coli MITC95 [1, 10]: 3.125 µM; Serratia marcescens MITC95 [2, 11]: 3.125 µM; Klebsiella pneumoniae MITC95 [3, 12]: 100 µM; IC50 (NDM-1; [13]): 2.4 nM; IC50 (IMP-1; [13]): 0.472 nM; IC50 (VIM-1; [14]): 16.5 nM |
| NS(=O)(=O)c1c(C2CC2)ccc(-c2ccnc3ccccc23)c1-c1nn[nH]n1 [Example 275, 6-cyclopropyl-3-(quinolin-4-yl)-2-(2H-tetrazol-5-yl)benzenesulfonamide] | – | – | – | – | – | – | 3.125 | 0.7813 | 9.375 | 3.68 | 6.7 | IC50 (VIM-1; [20]): 0.637 nM |
| CC(C)c1cccc(S(N)(=O)=O)c1-c1nnn[nH]1 [Example 156, 3-isopropyl-2-(1H-tetrazol-5-yl)benzenesulfonamide] | – | – | – | – | – | – | – | – | – | – | – | Escherichia coli expressing NDM-1 (CLB 30016) MITC95 [1]: 0.5859 µM; Serratia marcescens expressing IMP-1 (CL5741) MITC95 [2]: 9.375 µM; Klebsiella pneumoniae expressing VIM-1 (IHMA 599644) MITC95 [3]: 50 µM; IC50 (NDM-1; [13]): 13.1 nM; IC50 (IMP-1; [13]): 508 nM; IC50 (VIM-1; [14]): 391 nM |
| NS(=O)(=O)c1nccc(N2CCC(c3nnc4ccccn34)CC2)c1-c1nnn[nH]1 [Example 241, 3-(1H-tetrazol-5-yl)-4-(4-[1,2,4]triazolo[4,3-a]pyridin-3-ylpiperidin-1-yl)pyridine-2-sulfonamide] | – | – | – | – | – | – | 1.563 | 12.5 | >200 | 67.7 | 335 | IC50 (VIM-1; [21]): 774 nM |
| Nc1n[nH]c2ccc(-c3ccc(C(F)(F)F)c(S(N)(=O)=O)c3-c3nnn[nH]3)cc12 [Example 480, 3-(3-amino-1H-indazol-5-yl)-2-(1H-tetrazol-5-yl)-6-(trifluoromethyl)benzenesulfonamide] | – | – | – | – | – | – | 0.7813 | 0.7813 | 2.344 | 0.871 | 9.14 | IC50 (VIM-1; [20]): 0.264 nM |
| NC1(c2ccc(-c3ccc(C(F)(F)F)c(S(N)(=O)=O)c3-c3nn[nH]n3)cc2)CCNCC1 [Example 436, 4′-(4-aminopiperidin-4-yl)-2-(2H-tetrazol-5-yl)-4-(trifluoromethyl)-[1,1′-biphenyl]-3-sulfonamide] | – | – | – | – | – | – | 0.375 | 0.2552 | 0.8542 | 9.32 | 12.8 | IC50 (VIM-1; [20]): 3.04 nM |
| NS(=O)(=O)c1cccc(-c2ccc(CN3CCC(CO)C3)cc2)c1-c1nnn[nH]1 (stereo in doubt) [Example 391, 4′-{[(3S)-3-(hydroxymethyl)pyrrolidin-1-yl]methyl}-2-(1H-tetrazol-5-yl)biphenyl-3-sulfonamide] | – | – | – | – | – | – | 1.172 | 2.344 | 50 | 18.9 | 348 | IC50 (VIM-1; [21]): 401 nM |
| NS(=O)(=O)c1c(CC2CCN(CC3CNC3)CC2)ccc(-c2ccc(C3CCNCC3)cc2)c1-c1nn[nH]n1 [Example 471, 4-((1-(azetidin-3-ylmethyl)piperidin-4-yl)methyl)-4′-(piperidin-4-yl)-2-(2H-tetrazol-5-yl)-[1,1′-biphenyl]-3-sulfonamide] | – | – | – | – | – | – | 0.7813 | 1.563 | 1.563 | 2.72 | 8.68 | IC50 (VIM-1; [20]): 2.05 nM |
| NS(=O)(=O)c1c(CC2CCNCC2)ccc(-c2ccc(C3CNC3)cc2)c1-c1nnn[nH]1 [Example 597, 3-[4-(azetidin-3-yl)phenyl]-6-(4-piperidylmethyl)-2-(1H-tetrazol-5-yl)benzenesulfonamide] | 1.563 | 3.125 | 1.563 | 8.86 | 46 | 1.24 | – | – | – | – | – | – |
| NS(=O)(=O)c1c(C(F)(F)F)ccc(-c2cnc3ncccn23)c1-c1nnn[nH]1 [Example 712, 3-imidazo[1,2-a]pyrimidin-3-yl-2-(1H-tetrazol-5-yl)-6-(trifluoromethyl)benzenesulfon-amide] | 25 | 100 | 50 | 58.7 | 126 | – | – | – | – | – | – | IC50 (VIM-1; VIM-1 IC50, VIM-1 enzyme, CCF2-FA substrate): 13.6 nM |
| Cl.Cl.NC1(c2ccc(-c3cccc(S(N)(=O)=O)c3-c3nn[nH]n3)cc2)CCNCC1 [Example 283, 4′-(4-aminopiperidin-4-yl)-2-(2H-tetrazol-5-yl)-[1,1′-biphenyl]-3-sulfonamide dihydrochloride] | – | – | – | – | – | – | 0.5859 | 2.344 | 12.5 | 33 | 500 | IC50 (VIM-1; [20]): 308 nM |
| NC(=O)CN1CCC(Cc2ccc(-c3ccc(C4CNC4)cc3)c(-c3nn[nH]n3)c2S(N)(=O)=O)CC1 [Example 609, 2-[4-[[4-[4-(azetidin-3-yl)phenyl]-2-sulfamoyl-3-(2H-tetrazol-5-yl)phenyl]methyl]-1-piperidyl]acetamide] | 6.25 | 12.5 | 3.125 | 21.3 | 83.9 | 1.64 | – | – | – | – | – | – |
| NCCNC1CCC(c2ccc(C(F)(F)F)c(S(N)(=O)=O)c2-c2nnn[nH]2)CC1 (stereo not drawn) [Example 827, 3-[4-(trans-2-aminoethylamino)cyclohexyl]-2-(1H-tetrazol-5-yl)-6-(trifluoromethyl)benzenesulfonamide] | – | – | – | – | – | – | – | – | – | – | – | Escherichia coli MITC95 [1, 10]: 0.3906 µM; Serratia marcescens MITC95 [2, 11]: 0.3906 µM; Klebsiella pneumoniae MITC95 [3, 12]: 1.172 µM; IC50 (NDM-1; [13]): 5.72 nM; IC50 (IMP-1; [13]): 22.6 nM; IC50 (VIM-1; [22]): 2.59 nM |
| NS(=O)(=O)c1c(C(F)(F)F)ccc(-c2ccc(S(=O)(=O)CCO)cc2)c1-c1nnn[nH]1 [Example 742, 4′-[(2-hydroxyethyl)sulfonyl]-2-(1H-tetrazol-5-yl)-4-(trifluoromethyl)biphenyl-3-sulfonamide] | 12.5 | 12.5 | 25 | 2.01 | 1.84 | 0.657 | – | – | – | – | – | – |
| N=C(N)NCc1ccc(-c2ccc(CC3CCNCC3)c(S(N)(=O)=O)c2-c2nn[nH]n2)cc1 [Example 594, 4′-(guanidinomethyl)-4-(piperidin-4-ylmethyl)-2-(2H-tetrazol-5-yl)biphenyl-3-sulfonamide] | 0.7813 | 1.563 | 1.563 | 13.4 | 51.7 | 5.41 | – | – | – | – | – | – |
| CN(Cc1ccccc1)c1ccnc(S(N)(=O)=O)c1-c1nnn[nH]1 [Example 229, 4-[benzyl(methyl)amino]-3-(1H-tetrazol-5-yl)pyridine-2-sulfonamide] | – | – | – | – | – | – | – | – | – | – | – | Escherichia coli expressing NDM-1 (CLB 30016) MITC95 [1]: 12.5 µM; Serratia marcescens expressing IMP-1 (CL5741) MITC95 [2]: 50 µM; Klebsiella pneumoniae expressing VIM-1 (IHMA 599644) MITC95 [3]: 6.25 µM; IC50 (NDM-1; [13]): 204 nM; IC50 (IMP-1; [13]): 466 nM; IC50 (VIM-1; [22]): 2.22 nM |
| N[C@@H]1CCCN(c2ccc(-c3ccc(C(F)(F)F)c(S(N)(=O)=O)c3-c3nnn[nH]3)cc2)C1 [Example 727, 4′-[(3R)-3-aminopiperidin-1-yl]-2-(1H-tetrazol-5-yl)-4-(trifluoromethyl)biphenyl-3-sulfonamide] | 3.125 | 3.125 | 25 | 2.13 | 1.97 | 0.914 | – | – | – | – | – | – |
| Cc1cccc(Cc2cccc(S(N)(=O)=O)c2-c2nnn[nH]2)c1 [Example 158, 3-(3-methylbenzyl)-2-(1H-tetrazol-5-yl)benzenesulfonamide] | – | – | – | – | – | – | – | – | – | – | – | Escherichia coli expressing NDM-1 (CLB 30016) MITC95 [1]: 3.125 µM; Serratia marcescens expressing IMP-1 (CL5741) MITC95 [2]: 12.5 µM; Klebsiella pneumoniae expressing VIM-1 (IHMA 599644) MITC95 [3]: 200 µM; IC50 (NDM-1; [13]): 16 nM; IC50 (IMP-1; [13]): 387 nM; IC50 (VIM-1; [22]): 352 nM |
